Measured values taken from US20060112494A1, “Method of protecting an animal skin product from metalloproteinase activity” (priority 2004, published 2006).
Where two headings read alike, the source gives them in different places.

Legend:
[1] = tested on: collagenase; settings: for Collagenase Activity/Days 2: day 2; for Collagenase Activity/Days 7: day 7; for Collagenase Activity/Days 1: day 1
[2] = tested on: Aeromonas salmonicida; parameters: key to the marks not given beside the values; settings: for Growth/Days 1: day 1; for Growth/Days 2: day 2; for Growth/Days 7: day 7
Method: (§1) Nutrient agar amended with Azocoll (a substrate made up of insoluble particles of collagen impregnated with a bright azo dye) was used as the test medium to study collagenase activity. The nutrient agar was prepared and autoclaved and then was cooled to 55° C. Azocol was added to give a final concentration of 0.5%. […] Using a sterile spatula or cork-borer, the middle portion of each plate of about the size of a United States quarter, was scooped out. Fresh nutrient agar-azocoll medium containing no inhibitor was added to replace the scooped out portion of the plate. […] The bacteria were grown overnight on nutrient agar. A suspension of each culture was made in sterile water and used to inoculate the middle portion of each plate. The treated samples were incubated at 30° C. and evaluated after 24 hours, 2 days and 7 days for collagenase activity and also for the growth of the bacteria. The test cultures secreted collagenase into the medium as they grew to degrade the collagen in the azocoll medium, and collagenase activity was determined by visual inspection of the clear zone around the bacteria. All % are by weight percent of the active ingredient.

[3] = tested on: collagenase
[4] = tested on: Pseudomonas fluorescens
Method: as §1

[5] = Conc. 1.8%, column day 1, footnote d: data collected on day 2
[6] = Conc. 1.8%, column day 2, footnote e: data collected on day 3

O=C(O)C[C@H](NCCN[C@@H](CC(=O)O)C(=O)O)C(=O)O [Na3EDDS, S,S′-ethylenediamine disuccinic acid]
Collagenase Activity/Days 2 ([1]; Conc. 0.2%): ++++
Collagenase Activity/Days 7 ([1]; Conc. 0.2%): ++++
Collagenase Activity/Days 1 ([1]; Conc. 0.5%): 0
Collagenase Activity/Days 7 ([1]; Conc. 0.5%): ++++
Collagenase Activity/Days 1 ([1]; Conc. 0.7%): 0
Collagenase Activity/Days 1 ([1]; Conc. 1%): 0
Collagenase Activity/Days 1 ([1]; Conc. 1.2%): 0
Collagenase Activity/Days 2 ([1]; Conc. 1.2%): +
Collagenase Activity/Days 7 ([1]; Conc. 1.2%): ++++
Collagenase Activity/Days 1 ([1]; Conc. 1.3%): 0
Collagenase Activity/Days 2 ([1]; Conc. 1.3%): 0
Collagenase Activity/Days 1 ([1]; Conc. 1.5%): 0
Collagenase Activity/Days 2 ([1]; Conc. 1.5%): 0
Collagenase Activity/Days 7 ([1]; Conc. 1.5%): 0
Collagenase Activity/Days 1 ([1]; Conc. 1.8%): 0
Collagenase Activity/Days 2 ([1]; Conc. 1.8%): 0
Collagenase Activity/Days 7 ([1]; Conc. 1.8%): 0
Collagenase Activity/Days 1 ([1]; Conc. 2%): 0
Collagenase Activity/Days 2 ([1]; Conc. 2%): 0
Collagenase Activity/Days 7 ([1]; Conc. 2%): 0
performance as collagenase inhibitors (summary in words) ([1]; collagenase produced by the bacteria studied, Table 2): performed very well as collagenase inhibitors
Growth/Days 1 ([2]; Conc. 0.2%): ++++
Growth/Days 2 ([2]; Conc. 0.2%): ++++
Growth/Days 7 ([2]; Conc. 0.2%): ++++
Growth/Days 1 ([2]; Conc. 0.5%): ++++
Growth/Days 2 ([2]; Conc. 0.5%): ++++
Growth/Days 7 ([2]; Conc. 0.5%): ++++
Growth/Days 1 ([2]; Conc. 0.7%): ++++
Growth/Days 2 ([2]; Conc. 0.7%): ++++
Growth/Days 7 ([2]; Conc. 0.7%): ++++
Growth/Days 1 ([2]; Conc. 1%): ++++
Growth/Days 2 ([2]; Conc. 1%): ++++
Growth/Days 7 ([2]; Conc. 1%): ++++
Growth/Days 1 ([2]; Conc. 1.2%): ++++
Growth/Days 2 ([2]; Conc. 1.2%): ++++
Growth/Days 7 ([2]; Conc. 1.2%): ++++
Growth/Days 1 ([2]; Conc. 1.3%): ++++
Growth/Days 2 ([2]; Conc. 1.3%): ++++
Growth/Days 7 ([2]; Conc. 1.3%): ++++
Growth/Days 1 ([2]; Conc. 1.5%): ++++
Growth/Days 2 ([2]; Conc. 1.5%): ++++
Growth/Days 7 ([2]; Conc. 1.5%): ++++
Growth/Days 1 ([2]; Conc. 1.8%): +++
Growth/Days 2 ([2]; Conc. 1.8%): ++++
Growth/Days 7 ([2]; Conc. 1.8%): ++++
Growth/Days 1 ([2]; Conc. 2%): ++
Growth/Days 2 ([2]; Conc. 2%): +++
Growth/Days 7 ([2]; Conc. 2%): +++
Collagenase Activity/Days 1 ([3]; Conc. 0.1%, day 1): ++++
Collagenase Activity/Days 2 ([3]; Conc. 0.1%, day 2): ++++
Collagenase Activity/Days 7 ([3]; Conc. 0.1%, day 7): ++++
Collagenase Activity/Days 2 ([3]; Conc. 0.2%, day 2): ++++
Collagenase Activity/Days 7 ([3]; Conc. 0.2%, day 7): ++++
Collagenase Activity/Days 1 ([3]; Conc. 0.3%, day 1): 0
Collagenase Activity/Days 2 ([3]; Conc. 0.3%, day 2): +++
Collagenase Activity/Days 7 ([3]; Conc. 0.3%, day 7): ++++
Collagenase Activity/Days 1 ([3]; Conc. 0.4%, day 1): 0
Collagenase Activity/Days 2 ([3]; Conc. 0.4%, day 2): ++
Collagenase Activity/Days 7 ([3]; Conc. 0.4%, day 7): ++++
Collagenase Activity/Days 1 ([3]; Conc. 0.5%, day 1): 0
Collagenase Activity/Days 7 ([3]; Conc. 0.5%, day 7): ++++
Collagenase Activity/Days 1 ([3]; Conc. 0.6%, day 1): 0
Collagenase Activity/Days 2 ([3]; Conc. 0.6%, day 2): 0
Collagenase Activity/Days 7 ([3]; Conc. 0.6%, day 7): +
Collagenase Activity/Days 1 ([3]; Conc. 0.7%, day 1): 0
Collagenase Activity/Days 1 ([3]; Conc. 0.8%, day 1): 0
Collagenase Activity/Days 2 ([3]; Conc. 0.8%, day 2): 0
Collagenase Activity/Days 7 ([3]; Conc. 0.8%, day 7): 0
Collagenase Activity/Days 1 ([3]; Conc. 0.9%, day 1): 0
Collagenase Activity/Days 2 ([3]; Conc. 0.9%, day 2): 0
Collagenase Activity/Days 7 ([3]; Conc. 0.9%, day 7): 0
Collagenase Activity/Days 1 ([3]; Conc. 1%, day 1): 0
Collagenase Activity/Days 1 ([3]; Conc. 1.3%, day 1): 0
Collagenase Activity/Days 2 ([3]; Conc. 1.3%, day 2): 0
Collagenase Activity/Days 1 ([3]; Conc. 1.5%, day 1): 0
Collagenase Activity/Days 2 ([3]; Conc. 1.5%, day 2): 0
Collagenase Activity/Days 7 ([3]; Conc. 1.5%, day 7): 0
Collagenase Activity/Days 1 [3, 5]: 0^d
Collagenase Activity/Days 2 [3, 6]: 0^e
Collagenase Activity/Days 7 ([3]; Conc. 1.8%, day 7 (footnote f)): 0^f
performance as collagenase inhibitors (summary in words) ([3]; collagenase produced by the bacteria studied, Table 1): performed very well as collagenase inhibitors
Growth/Days 1 ([4]; Conc. 0.1%, day 1): ++++
Growth/Days 2 ([4]; Conc. 0.1%, day 2): ++++
Growth/Days 7 ([4]; Conc. 0.1%, day 7): ++++
Growth/Days 1 ([4]; Conc. 0.2%, day 1): ++++
Growth/Days 2 ([4]; Conc. 0.2%, day 2): ++++
Growth/Days 7 ([4]; Conc. 0.2%, day 7): ++++
Growth/Days 1 ([4]; Conc. 0.3%, day 1): ++++
Growth/Days 2 ([4]; Conc. 0.3%, day 2): ++++
Growth/Days 7 ([4]; Conc. 0.3%, day 7): ++++
Growth/Days 1 ([4]; Conc. 0.4%, day 1): ++++
Growth/Days 2 ([4]; Conc. 0.4%, day 2): ++++
Growth/Days 7 ([4]; Conc. 0.4%, day 7): ++++
Growth/Days 1 ([4]; Conc. 0.5%, day 1): ++++
Growth/Days 2 ([4]; Conc. 0.5%, day 2): ++++
Growth/Days 7 ([4]; Conc. 0.5%, day 7): ++++
Growth/Days 1 ([4]; Conc. 0.6%, day 1): ++++
Growth/Days 2 ([4]; Conc. 0.6%, day 2): ++++
Growth/Days 7 ([4]; Conc. 0.6%, day 7): ++++
Growth/Days 1 ([4]; Conc. 0.7%, day 1): ++++
Growth/Days 2 ([4]; Conc. 0.7%, day 2): ++++
Growth/Days 7 ([4]; Conc. 0.7%, day 7): ++++
Growth/Days 1 ([4]; Conc. 0.8%, day 1): ++++
Growth/Days 2 ([4]; Conc. 0.8%, day 2): ++++
Growth/Days 7 ([4]; Conc. 0.8%, day 7): ++++
Growth/Days 1 ([4]; Conc. 0.9%, day 1): ++++
Growth/Days 2 ([4]; Conc. 0.9%, day 2): ++++
Growth/Days 7 ([4]; Conc. 0.9%, day 7): ++++
Growth/Days 1 ([4]; Conc. 1%, day 1): ++++
Growth/Days 2 ([4]; Conc. 1%, day 2): ++++
Growth/Days 7 ([4]; Conc. 1%, day 7): ++++
Growth/Days 1 ([4]; Conc. 1.3%, day 1): ++++
Growth/Days 2 ([4]; Conc. 1.3%, day 2): ++++
Growth/Days 7 ([4]; Conc. 1.3%, day 7): ++++
Growth/Days 1 ([4]; Conc. 1.5%, day 1): ++++
Growth/Days 2 ([4]; Conc. 1.5%, day 2): ++++
Growth/Days 7 ([4]; Conc. 1.5%, day 7): ++++
Growth/Days 1 [4, 5]: ++++^d
Growth/Days 2 [4, 6]: ++++^e
Growth/Days 7 ([4]; Conc. 1.8%, day 7 (footnote f)): ++++^f
